Experimental data: patent US10035971B2, “Method for treating algae” (STAMICARBON B.V., priority 2014, dated 2018)

Columns and labels:
wet algae = test: Algal cell lysis with ionic liquid and oil extraction / transesterification; assay type: cell-based; conditions: for recovered oil (% of the total algal oil content): wet algae 5 g, water content 85%, cell lysis 80° C. 1 h, hexane added
Method: Cell lysis was performed at 100° C. for 1 h. Hexane was added to favor oil separation. After centrifugation, a three phase system was obtained: an upper hydrophobic layer, containing the oil; a lower phase (solid), due to the precipitated ionic liquid conjugate (ca. 60% of the starting material), and a middle phase, containing water/methanol+conjugate acid+the cell lysis hydrophilic products.
CO2 was added under pressure. Cell lysis was performed at 100° C. for 1 h. At the end of the experiment, hexane was added to favor oil separation. After centrifugation, a two phase system was obtained: an upper hydrophobic layer, containing the oil; a lower phase, containing water, the ionic liquid and the hydrophilic algae products.
The wet algae (5 gr, water content 85%) were added to tetramethylguanidinium hydrogen sulfate (15 gr). Cell lysis was performed at 80° C. for 1 h. At the end of the experiment, hexane was added to favor oil separation. The hydrophobic phase, after hexane evaporation, was analyzed by NMR and GC-MS.
The wet algae (5 g, water content 85%) and methanol (2.5 g) were added to tetramethylguanidinium hydrogensulfate. Cell lysis was performed at 80° C. for 1 h. At the end of the experiment, hexane (5 ml) was added to favor oil separation and the eventual precipitation of the conjugate acid. […] After hexane evaporation, the recovered products were analyzed by NMR and GC.
Cell lysis was performed at 80° C. for 1 h. At the end of the experiment, hexane (5 ml) was added to favor oil separation.
Cell lysis was performed at 80° C. for 1 h. At the end of the experiment, methanol (25 ml) and hexane (5 ml) was added to favor oil separation. […] After separation of the hydrophobic layer, the added inorganic salts and water were removed by centrifugation and distillation, and the recovered liquid was again used for algae extraction. After hexane evaporation, the recovered products were analyzed by NMR and GC.
The wet algae (5 g, water content 85%) were added to 1-ethyl-3-methylimidazolium ethyl sulfate (25 gr). Cell lysis was performed at 80° C. for 1 h. At the end of the experiment, hexane (5 ml) was added to favor oil separation. […] After separation of the hydrophobic layer, water was removed from the aqueous phase and the recovered liquid was again used for algae extraction. After hexane evaporation, the recovered products were analyzed by NMR and GC.
Cell lysis was performed at 80° C. for 1 h. At the end of the experiment, hexane (5 ml) was added to favor oil separation. […] After hexane evaporation, the recovered products were analyzed by NMR and GC.

[1] = in water; cited from earlier work

Molecule | recovered oil (% of the total algal oil content) (wet algae) | pKa water [1] | Oil extraction (%) with respect the total algal oil content (wet algae; Example 9, procedure of Example 1, 100° C. (10 atm for TMG and DBU), IL/Algae/MeOH 5:1:1.5 (5:1 for [BMIM]Cl))
1-ethyl-3-methylimidazolium ethyl sulfate [[EMIM] Ethyl Sulfate] | 50-52% |  | 
C1CN2CCN1CC2 [Dabco, triethylenediamine] |  | 8.8 | 
CN1CCCC1 [N-methylpyrrolidine] |  | 10.5 | 
CN(C)C(=N)N(C)C [Tetramethylguanidine (TMG), 1,1,3,3-tetramethylguanidine] |  | 15.2 | 
CC(=O)[O-].CCCCn1cc[n+](C)c1 [[BMIM] Acetate, 1-butyl-3-methylimidazolium acetate] | 40% |  | 
CCCC[n+]1ccn(C)c1.[Cl-] [[BMIM]Cl, 1-methyl-3-butylimidazolium chloride] | 40-60% |  | 40-60%
